13 molecules from patent US11377476B2, “Ras inhibitory peptides and uses thereof” (President and Fellows of Harvard College, priority 2014, dated 2022) can be followed below.

Converted amounts (≈) assume the structure as drawn. No end group written: not given here.

Series [1] deals with KRas (Homo sapiens, UniProt P01116, G12V). Briefly: Yeast surface display binding to KRas (FACS).
A short description of series [2]: Circular dichroism spectra and thermal melting at 222 nm. To be noted: for effect of mutation on peptide secondary structure by CD: pH 12, compared to 225-3; for Tm: CD at 222 nm. Type of series: physicochemical. In general terms: CD spectra are sensitive to the conformation of chiral molecules.
Series [3] concerns the target T1, endogenous Ras / Raf RBD interaction (Homo sapiens, UniProt P01116, G12V).
T1 construct: endogenous in cells; host or cells: Capan-1 lysate (Ras); the GST-Raf RBD was made in E. coli BL21 Rosetta I pLysS from pGEX-5X
The series can be described thus: GST-Raf RBD pulldown of Ras in Capan-1 cell lysate, competition by peptide. Type of series: biochemical. To be noted: lysate pre-incubated with 10 μM peptide.

In series [4] the test system is endogenous Ras in Capan-1 cell lysate. The series can be described thus: Peptide pulldown of Ras in Capan-1 cell lysate. To be noted: for pulldown of endogenous Ras by biotinylated peptide: 5 μM peptide, streptavidin beads, western blot. The series is classed as binding, human.
The target in series [5] is KRas (G12V) loaded with mant-GppNHp (Homo sapiens, UniProt P01116, G12V). Briefly: Mant nucleotide dissociation assay. Type of series: biochemical. Conditions: 1 μM Raf or peptide, 500 nM Ras, excess GppNHp.
Series [6] addresses KRas (G12V).GppNHp (Homo sapiens, UniProt P01116, G12V). The series can be described thus: Fluorescence polarization binding of FITC-labeled 225-3 and its alanine mutants to KRas. To be noted: alanine mutants of 225-3. (In fluorescence polarisation assays a small probe gives low polarisation when free and higher when bound to something large.)
The target in series [7] is T2, RalA (Homo sapiens, UniProt P11233).
T2 sequence (P11233 1-206): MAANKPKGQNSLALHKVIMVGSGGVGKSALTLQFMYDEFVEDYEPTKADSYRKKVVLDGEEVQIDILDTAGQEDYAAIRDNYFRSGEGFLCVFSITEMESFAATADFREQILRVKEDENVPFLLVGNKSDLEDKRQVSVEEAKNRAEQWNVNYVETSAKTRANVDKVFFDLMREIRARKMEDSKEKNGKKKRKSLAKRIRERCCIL
The series can be described thus: Yeast surface display binding to RalA. To be noted: FIG. 38A-B. The source says: (§1) Experimental for yeast display assays were similar to those used for FIG. 9. MY01 peptide of SEQ ID NO: 43 corresponds to the indicated high-binding population in FIG. 38C. Purification of the RalA protein was similar to the methods used for KRas constructs as discussed previously.

Series [8] is described as follows: Solubility of peptides in buffer.
The target of series [9] is GppNHp-bound Rapla (Homo sapiens, UniProt P62834). Conditions: Rapla versus Ras.
For series [10] the following is noted: not told.
The test system of series [11] is H358 lung adenocarcinoma cells. Briefly: Live-cell confocal microscopy with fluorescein-labeled peptides. Conditions: 5 uM, compared to SEQ ID NO: 10. Type of series: cell-based, human. As for the experimental part:
Human tumor cell lines (e.g., H358 or HPAF-II) were seeded into LabTek II culture chambers in DMEM media supplemented with 10% fetal calf serum and grown overnight at 37° C. under standard cell culture conditions. The following day, media was replaced with media containing 5 uM of fluorescein-labeled peptide and incubated for 4 hours at 37° C. The cells were washed, stained with NucBlue Hoechst 33342 and Dextran 10k Alexa647, then imaged on a confocal microscope. The fluorescent peptides were visualized with a 488 nm laser and is shown in green in FIGS. 34A-B.

The target in series [12] is Ras (Homo sapiens, UniProt P01116, G12V). Briefly: Ras binding of disulfide-protected peptide on addition of glutathione. Conditions: Cys protected with 2,2′-Dipyridyldisulfide; 5 mM reduced glutathione. The source says: This cysteine is uncaged in the presence of […] glutathione levels to form the disulfide-bonded species, which is a better Ras binder. […] The experimentals are the similar to those described for FIG. 19.

Series [13] has as its target Myc/Max heterodimer (Homo sapiens, UniProt P01106+P61244). The series can be described thus: Yeast surface display binding to Myc/Max. Conditions: FIG. 38C.
Source text: as §1
Purification of the Myc/Max proteins was done as follows. A bicistronic pET vector containing His6-yBBr-TEV-Myc (residues 353-434) and untagged Max (residues 22-102) was transformed into chemically competent BL21 cells. The cells were grown to OD600=0.7, induced with 0.25 mM IPTG for 5 hours at 30° C., then harvested and resuspended in lysis buffer (20 mM HEPES pH 7.5, 500 mM KCl, 5% glycerol) prior to snap-freezing in liquid nitrogen. For purification, the pellet was thawed, raised to 40 ml in the same buffer, and mixed with a Roche Complete EDTA-free protease inhibitor tablet. The cells were lysed with a tip sonicator (VirSonic, 6 cycles of 10 s on, 15 s off at 6.5 power level), then pelleted at 30,000×g for 30 minutes and filtered through a 0.45 uM Tuffryn membrane (Pall Corporation). The clarified lysate was added to 2 ml of HisPur Ni-NTA resin (Thermo Pierce) that had been equilibrated with the same buffer, and drained by gravity. The column was washed with 20 ml of buffer, then protein was eluted with buffer containing 150 mM imidazole and some protease inhibitor. […]

As a reminder, the solubility is the dissolved amount per volume that the medium holds. A higher solubility goes with much dissolved substance.

For the molecule “GCGGPRRPRYPGDDACEEDLHEYWARLWNYLYAVA [225-1 S13C/I14E]”, the “binding of yeast-displayed peptide to KRas” value in series [1] (5 nM KRas, mutant pre-incubated with free 225-1) is listed as “binds Ras with increased affinity”.
For the molecule “GCGGPRRPRRPRYPGDDASIEDLHEYAARLWNYLYAVA [Peptide W21A]”, in series [2], the “effect of mutation on peptide secondary structure by CD” value (“effect of mutation” for short) is listed as “significant destabilizing effect”.
In the case of “GCGGPRRPRRPRYPGDDASIEDLHEYWARLWAYLYAVA [Peptide N26A]”, the “effect on pulldown of Ras by GST-tagged Raf RBD” value in [3] is on record as “did not disrupt this pulldown”. Besides, the “pulldown of endogenous Ras by biotinylated peptide” value in series [4] is “not pulled down”. In series [2], the “effect of mutation” value is given as “unchanged compared to 225-3”. For the same molecule, the “effect on rate of mantGppNHp dissociation from KRas” value in series [5] is recorded as “did not decrease the rate of dissociation”. Moreover, the “reduction in measured binding affinity relative to 225-3” value in series [6] was “at least 100 fold”.
Turning to “GPRRPRCPGDDASISDLLLYWLRLDRYLWAVA [SEQ ID NO: 44]”, the “binding to RalA” value in [7] was “binds”.
Consider “GCGGPRRPRYPGDDASIEDLHEYWARLWNYLYRVA [225-1 A30R]”, for which the “selectivity KRas(GTP) vs KRas(GDP)” value in series [1] (500 nM each of Ras.GTP and Ras.GDP, two-colour FACS) is on record as “more selective for KRas (GTP) than 225-1”.
In the case of `CC[C@H](C)[C@H](NC(=O)[C@H](CO)NC(=O)[C@H](C)NC(=O)[C@H](CC(=O)O)NC(=O)[C@H](CC(=O)O)NC(=O)CNC(=O)[C@@H]1CCCN1C(=O)[C@H](Cc1ccc(O)cc1)NC(=O)[C@H](CCCNC(=N)N)NC(=O)[C@@H]1CCCN1C(=O)[C@H](CCCNC(=N)N)NC(=O)[C@H](CCCNC(=N)N)NC(=O)[C@@H]1CCCN1C(=O)CNC(=O)CNC(=O)[C@H](CS)NC(=O)CN)C(=O)N[C@@H](CCC(=O)O)C(=O)N[C@@H](CC(=O)O)C(=O)N[C@@H](CC(C)C)C(=O)N[C@@H](Cc1c[nH]cn1)C(=O)N[C@@H](CCC(=O)O)C(=O)N[C@@H](Cc1ccc(O)cc1)C(=O)N[C@@H](Cc1c[nH]c2ccccc12)C(=O)N[C@@H](C)C(=O)N[C@@H](CCCNC(=N)N)C(=O)N[C@@H](CC(C)C)C(=O)N[C@@H](Cc1c[nH]c2ccccc12)C(=O)N[C@@H](CC(N)=O)C(=O)N[C@@H](Cc1ccc(O)cc1)C(=O)N[C@@H](CC(C)C)C(=O)N[C@@H](Cc1ccc(O)cc1)C(=O)N[C@@H](C)C(=O)N[C@H](C(=O)N[C@@H](C)C(=O)O)C(C)C` [Peptide 225-1], in series [8], the solubility lay in the range of 100 to 200 µM (≈ 407 to 814 µg/mL).
Take `CC[C@H](C)[C@H](NC(=O)[C@H](CO)NC(=O)[C@H](C)NC(=O)[C@H](CC(=O)O)NC(=O)[C@H](CC(=O)O)NC(=O)CNC(=O)[C@@H]1CCCN1C(=O)[C@H](Cc1ccc(O)cc1)NC(=O)[C@H](CCCNC(=N)N)NC(=O)[C@@H]1CCCN1C(=O)[C@H](CCCNC(=N)N)NC(=O)[C@H](CCCNC(=N)N)NC(=O)[C@@H]1CCCN1C(=O)[C@H](CCCNC(=N)N)NC(=O)[C@H](CCCNC(=N)N)NC(=O)[C@@H]1CCCN1C(=O)CNC(=O)CNC(=O)[C@H](CS)NC(=O)CN)C(=O)N[C@@H](CCC(=O)O)C(=O)N[C@@H](CC(=O)O)C(=O)N[C@@H](CC(C)C)C(=O)N[C@@H](Cc1c[nH]cn1)C(=O)N[C@@H](CCC(=O)O)C(=O)N[C@@H](Cc1ccc(O)cc1)C(=O)N[C@@H](Cc1c[nH]c2ccccc12)C(=O)N[C@@H](C)C(=O)N[C@@H](CCCNC(=N)N)C(=O)N[C@@H](CC(C)C)C(=O)N[C@@H](Cc1c[nH]c2ccccc12)C(=O)N[C@@H](CC(N)=O)C(=O)N[C@@H](Cc1ccc(O)cc1)C(=O)N[C@@H](CC(C)C)C(=O)N[C@@H](Cc1ccc(O)cc1)C(=O)N[C@@H](C)C(=O)N[C@H](C(=O)N[C@@H](C)C(=O)O)C(C)C` [Peptide 225-3]: the “pulldown of endogenous Ras by biotinylated peptide” value in series [4] was “pulled down Ras”. In addition, in series [4] (lysate pre-incubated with Raf RBD (3 μM)), the “pulldown of endogenous Ras by biotinylated peptide after Raf RBD pre-incubation” value was “not when the lysate was pre-incubated with the Raf RBD”. The “binding weaker than to Ras” value in series [9] is “more than 100 fold”. Besides, the Tm came to 57 °C in series [2] (pH 4.5) and 46.2 °C in [2] (pH 12). Also, the cell permeability result in series [10] is listed as “somewhat cell permeable”.
Turning to “GCGGPRRPRRPRYPGDDASIEDLHEYWARLANYLYAVA [Peptide W25A]”, the “effect of mutation” value in [2] is recorded as “significant destabilizing effect”.
For the molecule “GCGGPRRPRYPGDAASIAALHAYWARLWNYLYRVA [SEQ ID NO: 28]”, in series [11], the “solubility / aggregates in microscopy” value is on record as “increased solubility”.
In the case of “PRRPRCPGHAASIAALHAYWARLWNYLYRVR [Peptide 291-Q3]”, the “change in Ras binding upon addition of reduced glutathione” value in series [12] is “increase in Ras binding”.
In the case of “GPRRPRCPGDDASIRDLLKYWWRLRLYLLAVA [SEQ ID NO: 43]”, the “binding to Myc/Max” value in series [13] was “binds”.
In the case of “I14A: single alanine point mutant I14A of the 225-3 peptide (GCGGPRRPRRPRYPGDDASAEDLHEYWARLWNYLYAVA) [Peptide I14A]”, in series [2], the “effect of mutation” value is on record as “significant destabilizing effect”.
Consider “GPRRPRCPGDDASIRDLVMYWYRLYFYLEAVA [SEQ ID NO: 45]”, for which, in series [7], the “binding to RalA” value was “binds both RalA and KRas”. Moreover, the “binding to KRas” value in series [1] (yeast surface display, FIG. 38) was “binds both RalA and KRas”.
